According to ChEMBL document CHEMBL1649537, “Imcroporin, a new cationic antimicrobial peptide from the venom of the scorpion Isometrus maculates” (2009):
In brackets after ≈: the same amount, converted by molar mass. Activity calls are given as the source filed them. The rule behind the calls is not given here.

Legend:
Staphylococcus aureus [1] = assay: Antimicrobial activity against methicillin-resistant Staphylococcus aureus P1374 by microdilution method; format: functional
Pseudomonas aeruginosa = assay: Antimicrobial activity against Pseudomonas aeruginosa AB92037 by microdilution method; format: functional
Micrococcus luteus = assay: Antimicrobial activity against Micrococcus luteus AB93113 by microdilution method; format: functional
Staphylococcus aureus [2] = assay: Antimicrobial activity against methicillin-resistant Staphylococcus aureus P1386 by microdilution method; format: functional
Staphylococcus aureus [3] = assay: Antimicrobial activity against methicillin-resistant Staphylococcus aureus P1386 at 200 ug/ml after 9 hrs by time-kill analysis; format: functional, organism-based
Bacillus subtilis = assay: Antimicrobial activity against Bacillus subtilis AB91021 by microdilution method; format: functional
Bacillus thuringiensis = assay: Antimicrobial activity against Bacillus thuringiensis AB93066 by microdilution method; format: functional
Escherichia coli = assay: Antimicrobial activity against Escherichia coli AB94012 by microdilution method; format: functional
Staphylococcus = assay: Antimicrobial activity against methicillin-resistant coagulase-negative Staphylococcus P1369 by microdilution method; format: functional
[4] = system: Staphylococcus epidermidis; assay: Antimicrobial activity against penicillin-resistant Staphylococcus epidermidis P1389 by microdilution method; format: functional
[5] = system: Staphylococcus epidermidis; assay: Antimicrobial activity against penicillin-sensitive Staphylococcus epidermidis P1111 by microdilution method; format: functional
Staphylococcus aureus [6] = assay: Antimicrobial activity against Staphylococcus aureus AB94004 by microdilution method; format: functional
Staphylococcus aureus [7] = assay: Antimicrobial activity against methicillin-resistant Staphylococcus aureus P1386 at 500 ug/ml after 9 hrs by time-kill analysis; format: functional, organism-based

## CO/N=C(\C(=O)N[C@@H]1C(=O)N2C(C(=O)O)=C(COC(C)=O)CS[C@H]12)c1csc(N)n1 [CEFOTAXIME]
Staphylococcus aureus [1]
  MIC: 400 µg/mL (≈ 878 µM)
Pseudomonas aeruginosa
  MIC: 12.5 µg/mL (≈ 27.4 µM)
Micrococcus luteus
  MIC: 3 µg/mL (≈ 6.59 µM)
Staphylococcus aureus [2]
  MIC: 400 µg/mL (≈ 878 µM)
Staphylococcus aureus [3]
  Activity: inactive
Bacillus subtilis
  MIC: 50 µg/mL (≈ 110 µM)
Bacillus thuringiensis
  MIC: 12.5 µg/mL (≈ 27.4 µM)
Escherichia coli
  MIC: 3 µg/mL (≈ 6.59 µM)
Staphylococcus
  MIC: 100 µg/mL (≈ 220 µM)
[4]
  MIC: 12.5 µg/mL (≈ 27.4 µM)
[5]
  MIC: 8 µg/mL (≈ 17.6 µM)
Staphylococcus aureus [6]
  MIC: 3 µg/mL (≈ 6.59 µM)

## CC1(C)S[C@@H]2[C@H](NC(=O)Cc3ccccc3)C(=O)N2[C@H]1C(=O)O [PENICILLIN G]
Staphylococcus aureus [1]
  MIC: 1000 µg/mL (≈ 2990 µM)
Micrococcus luteus
  MIC: 25 µg/mL (≈ 74.8 µM)
Staphylococcus aureus [2]
  MIC: 1000 µg/mL (≈ 2990 µM)
Bacillus subtilis
  MIC: 50 µg/mL (≈ 150 µM)
Staphylococcus aureus [7]
  Activity: inactive
Bacillus thuringiensis
  MIC: 12.5 µg/mL (≈ 37.4 µM)
Staphylococcus
  MIC: 2000 µg/mL (≈ 5980 µM)
[4]
  MIC: 1000 µg/mL (≈ 2990 µM)
[5]
  MIC: 4 µg/mL (≈ 12 µM)
Staphylococcus aureus [6]
  MIC: 6 µg/mL (≈ 17.9 µM)

## CN[C@H](CC(C)C)C(=O)N[C@H]1C(=O)N[C@@H](CC(N)=O)C(=O)N[C@H]2C(=O)N[C@H]3C(=O)N[C@H](C(=O)N[C@H](C(=O)O)c4cc(O)cc(O)c4-c4cc3ccc4O)[C@H](O)c3ccc(c(Cl)c3)Oc3cc2cc(c3O[C@@H]2O[C@H](CO)[C@@H](O)[C@H](O)[C@H]2O[C@H]2C[C@](C)(N)[C@H](O)[C@H](C)O2)Oc2ccc(cc2Cl)[C@H]1O [VANCOMYCIN]
Micrococcus luteus
  MIC: 3 µg/mL (≈ 2.07 µM)
Bacillus subtilis
  MIC: 3 µg/mL (≈ 2.07 µM)
Bacillus thuringiensis
  MIC: 3 µg/mL (≈ 2.07 µM)
Staphylococcus
  MIC: 4 µg/mL (≈ 2.76 µM)
